We go through four compounds from ChEMBL document CHEMBL1136535, “Unexpected inhibition of S-adenosyl-L-homocysteine hydrolase by a guanosine nucleoside” (Bioorg Med Chem Lett, 2003).

Experiment [1] concerns the target T1, Adenosylhomocysteinase (Homo sapiens, UniProt P23526). In words: Inhibitory activity against S-adenosyl-L-homocysteine hydrolase was determined.
Experiment [2] addresses T1, Adenosylhomocysteinase. Nature of the experiment: Inhibitory activity against S-adenosyl-L-homocysteine hydrolase was determined in hydrolysis direction.
Experiment [3] deals with T1, Adenosylhomocysteinase. Nature of the experiment: Inhibitory activity against S-adenosyl-L-homocysteine hydrolase was determined in synthetic directions.

Molecules are shown by their SMILES.

T1 sequence (P23526 whole entry): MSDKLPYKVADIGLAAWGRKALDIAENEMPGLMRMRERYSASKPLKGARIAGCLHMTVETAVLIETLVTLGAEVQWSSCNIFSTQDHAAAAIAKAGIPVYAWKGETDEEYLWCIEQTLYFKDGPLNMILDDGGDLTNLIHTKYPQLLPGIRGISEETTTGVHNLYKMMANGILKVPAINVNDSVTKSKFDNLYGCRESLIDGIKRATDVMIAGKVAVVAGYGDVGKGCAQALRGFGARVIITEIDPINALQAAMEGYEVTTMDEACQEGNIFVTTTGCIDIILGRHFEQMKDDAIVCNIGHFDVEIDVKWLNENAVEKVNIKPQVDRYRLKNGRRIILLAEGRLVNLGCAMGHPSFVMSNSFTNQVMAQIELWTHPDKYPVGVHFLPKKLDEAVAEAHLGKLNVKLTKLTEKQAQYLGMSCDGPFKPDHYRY

As for `OC[C@H]1OC(n2cncc2-c2cc(O)ncn2)[C@H](O)[C@@H]1O` (stereo not given in full), in experiment [1], the affinity corresponds to a Ki of 422 µM.

For the compound `Nc1nc(O)cc(-c2cncn2C2O[C@H](CO)[C@@H](O)[C@H]2O)n1` (stereo not given in full), the figures for the Ki in experiment [2] and in experiment [3] were 128 µM and 217 µM, respectively. In turn, `Nc1nc2c(ncn2[C@@H]2O[C@H](CO)[C@@H](O)[C@H]2O)c(=O)[nH]1` [GUANOSINE] gave a Ki in experiment [1] of 1470 µM. The same measure, in the same setting: then `OC[C@H]1O[C@@H](n2cnc3c(O)ncnc32)[C@H](O)[C@@H]1O` [INOSINE], with 925 µM.

By Ki is commonly meant the equilibrium dissociation constant of an inhibitor or competing ligand from its target. A high value points to lower affinity.
